{"source": "patent US12624044B2", "about": "“SMARCA degraders and uses thereof” (Kymera Therapeutics, Inc., priority 2019, dated 2026)", "data": [{"molecular_target": "SMARCA2 (Homo sapiens, UniProt P51531)", "sequence (P51531 whole entry)": "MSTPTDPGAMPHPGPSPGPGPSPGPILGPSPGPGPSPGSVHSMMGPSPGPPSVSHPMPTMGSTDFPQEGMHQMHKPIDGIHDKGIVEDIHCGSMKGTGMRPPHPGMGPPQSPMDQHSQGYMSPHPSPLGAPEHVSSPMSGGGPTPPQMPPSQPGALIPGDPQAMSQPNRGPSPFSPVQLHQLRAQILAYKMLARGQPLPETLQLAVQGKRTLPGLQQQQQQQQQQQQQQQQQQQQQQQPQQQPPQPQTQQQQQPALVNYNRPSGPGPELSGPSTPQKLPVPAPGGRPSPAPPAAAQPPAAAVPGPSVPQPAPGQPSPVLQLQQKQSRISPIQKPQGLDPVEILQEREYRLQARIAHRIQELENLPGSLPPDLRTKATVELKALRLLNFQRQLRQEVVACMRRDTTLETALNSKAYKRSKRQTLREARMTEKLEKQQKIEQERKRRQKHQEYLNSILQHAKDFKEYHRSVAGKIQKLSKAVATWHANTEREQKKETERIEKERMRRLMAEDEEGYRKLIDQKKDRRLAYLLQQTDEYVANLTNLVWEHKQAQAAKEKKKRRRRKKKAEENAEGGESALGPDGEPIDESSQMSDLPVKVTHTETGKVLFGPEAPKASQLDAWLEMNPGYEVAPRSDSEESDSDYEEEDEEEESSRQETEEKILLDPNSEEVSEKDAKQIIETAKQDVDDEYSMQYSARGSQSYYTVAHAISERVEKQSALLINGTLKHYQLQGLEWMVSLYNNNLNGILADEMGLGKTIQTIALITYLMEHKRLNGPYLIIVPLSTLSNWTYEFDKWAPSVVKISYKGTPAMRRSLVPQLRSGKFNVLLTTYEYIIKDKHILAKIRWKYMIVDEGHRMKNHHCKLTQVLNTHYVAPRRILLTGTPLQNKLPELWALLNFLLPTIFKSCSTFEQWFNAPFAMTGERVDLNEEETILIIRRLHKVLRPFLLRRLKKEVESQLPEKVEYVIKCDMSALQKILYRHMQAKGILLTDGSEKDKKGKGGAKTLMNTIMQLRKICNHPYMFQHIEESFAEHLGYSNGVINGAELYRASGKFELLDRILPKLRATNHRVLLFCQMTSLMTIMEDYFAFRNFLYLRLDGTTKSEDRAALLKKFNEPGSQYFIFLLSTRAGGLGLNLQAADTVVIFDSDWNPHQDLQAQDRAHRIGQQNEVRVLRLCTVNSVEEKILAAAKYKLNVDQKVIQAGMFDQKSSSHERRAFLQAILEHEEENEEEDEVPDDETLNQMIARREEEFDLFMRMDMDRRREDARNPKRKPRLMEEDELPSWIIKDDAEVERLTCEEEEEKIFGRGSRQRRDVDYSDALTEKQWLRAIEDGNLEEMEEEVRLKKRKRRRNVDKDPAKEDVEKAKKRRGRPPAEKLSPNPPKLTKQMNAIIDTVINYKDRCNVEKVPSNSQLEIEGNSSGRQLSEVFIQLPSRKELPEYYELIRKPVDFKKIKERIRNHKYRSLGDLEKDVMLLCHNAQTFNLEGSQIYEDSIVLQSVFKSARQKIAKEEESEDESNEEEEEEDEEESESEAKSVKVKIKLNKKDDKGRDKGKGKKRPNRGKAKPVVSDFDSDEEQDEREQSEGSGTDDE", "assay": "MSD SMARCA2 degradation in NCI-H1299 cell line (24 h)", "type": "cell-based", "parameters": "HC: NCI-H1299 cells treated with DMSO; host or cells: NCI-H1299", "details": "NCI-H1299, NCI-H1299 cells", "protocol": "(§1) Example 32. MSD SMARCA2 Degradation in […] Cell Line\n(§2) Cell Culture: Cells were cultured in exponential growth phase.\n(§3) Compound Preparation and Treatment: NCI-H1299 cells were seeded into the 96-well plate at 4.0*10^4 cells per 100 ul per well. Incubate the plate in the incubator overnight. The next day, compounds were diluted to designed stock concentration by TECAN, then perform a 3 fold, 9-point dilution via transferring 15 uL compound into 30 μL DMSO using Apricot. 200 nL diluted compound from compound source plate were transferred into the 96-intermediate plate as designated by using Echo550, followed with 100 ul culture medium to make the 2× compound solution. Cell plate were changed with 80 ul of fresh culture medium and 80 ul of 2× compound solution was added into the well to achieve the final designed concentration. Cell plate was then shaken at 720 rpm for 5 min and incubated for 24 hours in the incubator.\n(§4) Sample Preparation: Media was aspirated from the cultures and the plate was washed with PBS twice. 60 ul of pre-chilled PIPA lysis buffer (Boston BioProducts BP-115D) with protease inhibitor were directly added into the well to lyze the cells for 20 minutes at 4° C. Cell lysates were collected.\n(§5) MSD Procedure: The MSD plate was coated with 40 ul cell lysate and incubated at 4° C. overnight. The next day, the MSD coated bare plate was washed 3 times with 150 ul 1×TBST per well, blocked with 150 ul of blocking buffer per well, and shaken for 1 hour at RT, 600 rpm. Blocking buffer was 3% Blocker A in TBST. MSD plate was then washed 3 times with 150 ul 1×TBST per well and Primary Detection antibody (Rabbit anti-SMARCA2/BRM antibody, 100 μg/ml, ab223735) was added to a final [conc.]: 0.3 ug/ml, 25 ul/well and shaken for 1 hour at RT, 600 rpm. Antibody was prepared in Antibody Detection buffer (1% Blocker A in 1×TBST). The MSD plate was then washed 3 times with 150 ul 1×TBST per well. Secondary Detection antibody (SULFO-TAG anti-species antibody) was then added to a final [conc.]: 1 ug/ml, 25 ul/well, and shaken for 1 hour at RT, 600 rpm. Antibodies were prepared in Antibody Detection buffer (1% Blocker A in 1×TBST). MSD plate was washed 3 times with 150 ul 1×TBST per well and 2×MSD reading buffer was added, 150 ul per well, and diluted from 4× with water. MSD instrument was then read.\n(§6) Data Analysis: The percentage of relative level of SMARCA2 level was calculated following equation below.\n(§7) LC: A2780, SMARCA2 negative cells. HC: NCI-H1299 cells treated with DMSO.\n(§8) The letter codes for the percentage of SMARCA2 degradation after 24 hours (Dmax %) include: A (>90% degradation), B (>70-90 degradation), C (50-70 degradation), and D (<50% degradation).", "units": {"Dmax": "%"}, "values": [{"compound": "Cn1c(=O)n(C2CCC(=O)NC2=O)c2cccc(CCCNCc3cn(Cc4cccc(N5C[C@H]6C[C@@H]5CN6/C=C/C(=O)c5ccccc5O)n4)nn3)c21", "note": "(stereo partly drawn) [I-28]", "Dmax": "< 50"}]}, {"molecular_target": "SMARCA2 (Homo sapiens, UniProt P51531)", "assay": "MSD SMARCA2 degradation in NCI-H1299 cell line (24 h)", "type": "cell-based", "parameters": "HC: NCI-H1299 cells treated with DMSO; host or cells: NCI-H1299", "details": "NCI-H1299 cells, read-out: SMARCA2 MSD H1299 degradation 24 h: External Abs-DC50", "protocol": "as §1, §2, §3, §4, §5, §6, §7, §8", "units": {"DC50": "nM"}, "values": [{"compound": "O=C(CCCCCCCCOc1ccc(N2C[C@H]3C[C@@H]2CN3/C=C/C(=O)c2ccccc2O)nc1)NCCOCCOCCOCCNc1cccc2c1C(=O)N(C1CCC(=O)NC1=O)C2=O", "note": "(stereo partly drawn) [I-1]", "DC50": "> 1000"}, {"compound": "O=C(CCCCCCCCOc1ccc(N2C[C@H]3C[C@@H]2CN3/C=C/C(=O)c2ccccc2O)nc1)NCCOCCOCCOCCOCCNc1cccc2c1C(=O)N(C1CCC(=O)NC1=O)C2=O", "note": "(stereo partly drawn) [I-2]", "DC50": "> 1000"}, {"compound": "O=C(CCCCCCCCOc1ccc(N2C[C@H]3C[C@@H]2CN3/C=C/C(=O)c2ccccc2O)nc1)NCCOCCOCCOCCOCCOCCNc1cccc2c1C(=O)N(C1CCC(=O)NC1=O)C2=O", "note": "(stereo partly drawn) [I-3]", "DC50": "> 1000"}, {"compound": "Cn1c(=O)n(C2CCC(=O)NC2=O)c2ccc(CCCOCCOCCOCCNC(=O)CCCCCCCCOc3ccc(N4C[C@H]5C[C@@H]4CN5/C=C/C(=O)c4ccccc4O)nc3)cc21", "note": "(stereo partly drawn) [I-4]", "DC50": "> 1000"}, {"compound": "Cn1c(=O)n(C2CCC(=O)NC2=O)c2ccc(CCCOCCOCCOCCOCCNC(=O)CCCCCCCCOc3ccc(N4C[C@H]5C[C@@H]4CN5/C=C/C(=O)c4ccccc4O)nc3)cc21", "note": "(stereo partly drawn) [I-5]", "DC50": "> 1000"}, {"compound": "Cn1c(=O)n(C2CCC(=O)NC2=O)c2ccc(CCCOCCOCCOCCOCCOCCNC(=O)CCCCCCCCOc3ccc(N4C[C@H]5C[C@@H]4CN5/C=C/C(=O)c4ccccc4O)nc3)cc21", "note": "(stereo partly drawn) [I-6]", "DC50": "> 1000"}, {"compound": "O=C(CCCCCCCCOc1ccc(N2C[C@H]3C[C@@H]2CN3/C=C/C(=O)c2ccccc2O)nc1)NCCOCCOCCNc1cccc2c1C(=O)N(C1CCC(=O)NC1=O)C2=O", "note": "(stereo partly drawn) [I-7]", "DC50": "> 1000"}, {"compound": "Cn1c(=O)n(C2CCC(=O)NC2=O)c2ccc(CCCOCCOCCNC(=O)CCCCCCCCOc3ccc(N4C[C@H]5C[C@@H]4CN5/C=C/C(=O)c4ccccc4O)nc3)cc21", "note": "(stereo partly drawn) [I-8]", "DC50": "> 1000"}, {"compound": "CC(c1ccc(C(=O)NCCOCCOCCOCCNc2cccc3c2C(=O)N(C2CCC(=O)NC2=O)C3=O)cc1)n1cc(-c2cc(-c3ccccc3O)nnc2N)cn1", "note": "(stereo not drawn) [I-9]", "DC50": "> 1000"}, {"compound": "CC(c1ccc(C(=O)NCCOCCOCCOCCOCCNc2cccc3c2C(=O)N(C2CCC(=O)NC2=O)C3=O)cc1)n1cc(-c2cc(-c3ccccc3O)nnc2N)cn1", "note": "(stereo not drawn) [I-10]", "DC50": "> 1000"}, {"compound": "CC(c1ccc(C(=O)NCCOCCOCCOCCOCCOCCNc2cccc3c2C(=O)N(C2CCC(=O)NC2=O)C3=O)cc1)n1cc(-c2cc(-c3ccccc3O)nnc2N)cn1", "note": "(stereo not drawn) [I-11]", "DC50": "> 1000"}, {"compound": "CC(c1ccc(C(=O)NCCOCCOCCOCCCc2ccc3c(c2)n(C)c(=O)n3C2CCC(=O)NC2=O)cc1)n1cc(-c2cc(-c3ccccc3O)nnc2N)cn1", "note": "(stereo not drawn) [I-12]", "DC50": "> 1000"}, {"compound": "CC(c1ccc(C(=O)NCCOCCOCCOCCOCCCc2ccc3c(c2)n(C)c(=O)n3C2CCC(=O)NC2=O)cc1)n1cc(-c2cc(-c3ccccc3O)nnc2N)cn1", "note": "(stereo not drawn) [I-13]", "DC50": "> 1000"}, {"compound": "CC(c1ccc(C(=O)NCCOCCOCCOCCOCCOCCCc2ccc3c(c2)n(C)c(=O)n3C2CCC(=O)NC2=O)cc1)n1cc(-c2cc(-c3ccccc3O)nnc2N)cn1", "note": "(stereo not drawn) [I-14]", "DC50": "> 1000"}, {"compound": "CC(c1ccc(C(=O)NCCOCCOCCNc2cccc3c2C(=O)N(C2CCC(=O)NC2=O)C3=O)cc1)n1cc(-c2cc(-c3ccccc3O)nnc2N)cn1", "note": "(stereo not drawn) [I-15]", "DC50": "> 1000"}, {"compound": "CC(c1ccc(C(=O)NCCOCCOCCCc2ccc3c(c2)n(C)c(=O)n3C2CCC(=O)NC2=O)cc1)n1cc(-c2cc(-c3ccccc3O)nnc2N)cn1", "note": "(stereo not drawn) [I-16]", "DC50": "> 1000"}, {"compound": "O=C(CCCCCCCCOc1ccnc(N2C[C@H]3C[C@@H]2CN3/C=C/C(=O)c2ccccc2O)c1)NCCOCCOCCOCCNc1cccc2c1C(=O)N(C1CCC(=O)NC1=O)C2=O", "note": "(stereo partly drawn) [I-17]", "DC50": "> 1000"}, {"compound": "O=C(CCCCCCCCOc1ccnc(N2C[C@H]3C[C@@H]2CN3/C=C/C(=O)c2ccccc2O)c1)NCCOCCOCCOCCOCCNc1cccc2c1C(=O)N(C1CCC(=O)NC1=O)C2=O", "note": "(stereo partly drawn) [I-18]", "DC50": "> 1000"}, {"compound": "O=C(CCCCCCCCOc1ccnc(N2C[C@H]3C[C@@H]2CN3/C=C/C(=O)c2ccccc2O)c1)NCCOCCOCCOCCOCCOCCNc1cccc2c1C(=O)N(C1CCC(=O)NC1=O)C2=O", "note": "(stereo partly drawn) [I-19]", "DC50": "> 1000"}, {"compound": "Cn1c(=O)n(C2CCC(=O)NC2=O)c2ccc(CCCOCCOCCOCCNC(=O)CCCCCCCCOc3ccnc(N4C[C@H]5C[C@@H]4CN5/C=C/C(=O)c4ccccc4O)c3)cc21", "note": "(stereo partly drawn) [I-20]", "DC50": "> 1000"}, {"compound": "Cn1c(=O)n(C2CCC(=O)NC2=O)c2ccc(CCCOCCOCCOCCOCCNC(=O)CCCCCCCCOc3ccnc(N4C[C@H]5C[C@@H]4CN5/C=C/C(=O)c4ccccc4O)c3)cc21", "note": "(stereo partly drawn) [I-21]", "DC50": "> 1000"}, {"compound": "Cn1c(=O)n(C2CCC(=O)NC2=O)c2ccc(CCCOCCOCCOCCOCCOCCNC(=O)CCCCCCCCOc3ccnc(N4C[C@H]5C[C@@H]4CN5/C=C/C(=O)c4ccccc4O)c3)cc21", "note": "(stereo partly drawn) [I-22]", "DC50": "> 1000"}, {"compound": "O=C(CCCCCCCCOc1ccnc(N2C[C@H]3C[C@@H]2CN3/C=C/C(=O)c2ccccc2O)c1)NCCOCCOCCNc1cccc2c1C(=O)N(C1CCC(=O)NC1=O)C2=O", "note": "(stereo partly drawn) [I-23]", "DC50": "> 1000"}, {"compound": "Cn1c(=O)n(C2CCC(=O)NC2=O)c2ccc(CCCOCCOCCNC(=O)CCCCCCCCOc3ccnc(N4C[C@H]5C[C@@H]4CN5/C=C/C(=O)c4ccccc4O)c3)cc21", "note": "(stereo partly drawn) [I-24]", "DC50": "> 1000"}, {"compound": "Cn1c(=O)n(C2CCC(=O)NC2=O)c2ccc(CCCOCCOCCNC(=O)CCCOc3cccc(N4C[C@H]5C[C@@H]4CN5/C=C/C(=O)c4ccccc4O)n3)cc21", "note": "(stereo partly drawn) [I-25]", "DC50": "> 1000"}, {"compound": "Cn1c(=O)n(C2CCC(=O)NC2=O)c2ccc(CCCOCCOCCOCCNC(=O)CCCOc3cccc(N4C[C@H]5C[C@@H]4CN5/C=C/C(=O)c4ccccc4O)n3)cc21", "note": "(stereo partly drawn) [I-26]", "DC50": "> 1000"}, {"compound": "Cn1c(=O)n(C2CCC(=O)NC2=O)c2ccc(CNCc3cn(Cc4cccc(N5C[C@H]6C[C@@H]5CN6/C=C/C(=O)c5ccccc5O)n4)nn3)cc21", "note": "(stereo partly drawn) [I-27]", "DC50": "> 1000"}, {"compound": "Cn1c(=O)n(C2CCC(=O)NC2=O)c2cccc(CCCNCc3cn(Cc4cccc(N5C[C@H]6C[C@@H]5CN6/C=C/C(=O)c5ccccc5O)n4)nn3)c21", "note": "(stereo partly drawn) [I-28]", "DC50": "> 1000"}, {"compound": "Cn1c(=O)n(C2CCC(=O)NC2=O)c2ccc(CCCNCc3cn(Cc4cccc(N5C[C@H]6C[C@@H]5CN6/C=C/C(=O)c5ccccc5O)n4)nn3)cc21", "note": "(stereo partly drawn) [I-29]", "DC50": "> 1000"}, {"compound": "Cn1c(=O)n(C2CCC(=O)NC2=O)c2cccc(CCCOCCOc3cccc(N4C[C@H]5C[C@@H]4CN5/C=C/C(=O)c4ccccc4O)n3)c21", "note": "(stereo partly drawn) [I-30]", "DC50": "> 1000"}, {"compound": "Cn1c(=O)n(C2CCC(=O)NC2=O)c2ccc(CCCOCCOc3cccc(N4C[C@H]5C[C@@H]4CN5/C=C/C(=O)c4ccccc4O)n3)cc21", "note": "(stereo partly drawn) [I-31, 3-[5-[3-[2-[[6-[(1R,4R)-5-[(E)-3-(2-hydroxyphenyl)-3-oxo-prop-1-enyl]-2,5-diazabicyclo[2.2.1]heptan-2-yl]-2-pyridyl]oxy]ethoxy]propyl]-3-methyl-2-oxo-benzimidazol-1-yl]piperidine-2,6-dione]", "DC50": "> 1000"}, {"compound": "Cn1c(=O)n(C2CCC(=O)NC2=O)c2cccc(CCCOCCOCCOc3cccc(N4C[C@H]5C[C@@H]4CN5/C=C/C(=O)c4ccccc4O)n3)c21", "note": "(stereo partly drawn) [I-32]", "DC50": "> 1000"}, {"compound": "Cn1c(=O)n(C2CCC(=O)NC2=O)c2ccc(CCCOCCOCCOc3cccc(N4C[C@H]5C[C@@H]4CN5/C=C/C(=O)c4ccccc4O)n3)cc21", "note": "(stereo partly drawn) [I-33]", "DC50": "> 1000"}, {"compound": "O=C1CCC(N2C(=O)c3cccc(OCc4cn(Cc5cccc(N6C[C@H]7C[C@@H]6CN7/C=C/C(=O)c6ccccc6O)n5)nn4)c3C2=O)C(=O)N1", "note": "(stereo partly drawn) [I-34]", "DC50": "> 1000"}, {"compound": "O=C1CCC(N2C(=O)c3cccc(OCCc4cn(Cc5cccc(N6C[C@H]7C[C@@H]6CN7/C=C/C(=O)c6ccccc6O)n5)nn4)c3C2=O)C(=O)N1", "note": "(stereo partly drawn) [I-35]", "DC50": "> 1000"}]}]}
